For 3 compounds, Activity and IC50 results are on record in ChEMBL document CHEMBL3352810, “Synthesis and evaluation of novel alkannin and shikonin oxime derivatives as potent antitumor agents” (Bioorg Med Chem Lett, 2014).

pIC50: −log10 of the molar value.

Data set [1] deals with MCF7. The data set is described as follows: Induction of ROS level in human MCF7 cells by flow cytometry relative to control. It is filed as functional.
Data set [2] in a line: Alkylation of the compound assessed as Michael addition after 15 mins. The class given is physicochemical.
The nature of data set [3]: Alkylation of the compound assessed as bioreductive alkylation after 15 mins. The class given is physicochemical.
The subject of data set [4] is MCF7. The data set is described as follows: Cytotoxicity against human MCF7 cells by MTT assay. It is filed as functional, cell-based. In general terms: Formazan colour is commonly taken as a measure of viable cells.
Data set [5] is described as follows: Cytotoxicity against human skin fibroblast cells by MTT assay. The class given is cell-based.
The subject of data set [6] is DU-145. Kind of data set: Cytotoxicity against human DU145 cells by MTT assay. It is filed as functional, cell-based.
Data set [7] concerns K562. The data set is described as follows: Cytotoxicity against human K562 cells by MTT assay. It is filed as functional, cell-based.

Usually pIC50 stands for the IC50 on a negative log10 scale, so that one unit is a factor of ten. A lower pIC50 goes with a large IC50.

In the case of `CC(C)=CC[C@@H](OC(=O)C=C(C)C)C1=CC(=O)c2c(O)ccc(O)c2C1=O` [DIMETHYLACRYLSHIKONIN], the Activity in data set [1] is 414.8%; in data set [2] it was “Not Active”; in data set [3] it was “Not Active”.

Consider `CC(C)=CC[C@H](O)C1=CC(=O)c2c(O)ccc(O)c2C1=O` [ALKANNIN], for which the negative-log IC50 (pIC50) is 5.62 in data set [4], 5.82 in data set [5], 4.70 in data set [6] and 5.89 in data set [7].

`CC(C)=CC[C@@H](O)C1=CC(=O)c2c(O)ccc(O)c2C1=O` [SHIKONIN]: the pIC50 in data set [4] is 5.74; in data set [5], 5.92; in data set [6], 4.80; in data set [7], 6.15.
